Biological target: T1, BnAHAS3 (ZS9) (Brassica napus, UniProt P27819)
T1 construct: native, isolated and purified from total protein of ZS9 seedlings; AHAS on SDS-PAGE about 58-66 kD; immobilised on CM5 chip
T1 sequence (P27819 70-652): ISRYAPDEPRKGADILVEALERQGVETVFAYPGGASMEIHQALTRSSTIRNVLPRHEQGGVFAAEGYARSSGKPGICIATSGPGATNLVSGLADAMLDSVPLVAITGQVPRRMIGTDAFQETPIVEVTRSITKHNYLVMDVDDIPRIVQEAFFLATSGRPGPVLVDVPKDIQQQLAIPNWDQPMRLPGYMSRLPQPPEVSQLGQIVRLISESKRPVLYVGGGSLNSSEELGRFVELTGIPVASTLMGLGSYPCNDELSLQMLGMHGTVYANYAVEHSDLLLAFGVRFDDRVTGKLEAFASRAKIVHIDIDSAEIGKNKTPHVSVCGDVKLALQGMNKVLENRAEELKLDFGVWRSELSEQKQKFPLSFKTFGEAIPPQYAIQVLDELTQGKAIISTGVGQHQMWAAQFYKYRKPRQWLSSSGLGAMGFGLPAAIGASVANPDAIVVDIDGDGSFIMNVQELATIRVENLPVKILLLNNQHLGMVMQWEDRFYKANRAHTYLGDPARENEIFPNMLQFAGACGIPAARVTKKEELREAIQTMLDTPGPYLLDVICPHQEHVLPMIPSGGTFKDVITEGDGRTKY
Assay: surface plasmon resonance (Biacore T200, CM5 chip), kinetic fit kd/ka
Type: binding
Settings: read-out: Tribenuron-methyl / KD
Source text: surface plasmon resonance (Biacore T200, CM5 chip), kinetic fit kd/ka on BnAHAS3 (ZS9)

Question: For `COC(=O)c1ccccc1S(=O)(=O)NC(=O)N(C)c1nc(C)nc(OC)n1` [tribenuron-methyl], which Kd is on record?
Answer: 33 µM

— publication PMC11861483, “Genetic characterization of the AHAS mutant line K4 with resistance to AHAS-inhibitor herbicides in rapeseed (Brassica napus L.)” (Stress Biology, 2025)
